Measured values taken from patent publication EP0207202A1, “Anti-tumor platinum complexes” (Kidani, Yoshinori, priority 1985, dated 1987).
Where two headings read alike, the source gives them in different places.

System: Leukemia L-1210
Details: for number of mice cured after 30 days of the administration of the cells of Leukemia L-1210: parenthesized figure; for number of mice cured after 30 days of the administration of the cells of Leukemia L-1210 / T/C x 100: 6 mice per group; for T/C x 100: ratio of mean survival time test/control x 100
Description: Cells of Leukemia L-1210 were intraperitoneally administered to each of groups of mice(6 animals per group) at a rate of 10^5 cells per mouse, and while breeding the mice of control group, each of the compounds of the present invention was intraperitoneally administered to each mouse of the test groups after one, five and nine days of the administration of the cells, the mice of the test groups being bred similarly to those of control group. After observing the mortality of all the mice, the mean survival time period after the administration of the cells was obtained in each group including control group.

[1] = 25 mg/kg i.p. on days 1, 5 and 9
[2] = 25 mg/kg intraperitoneally on days 1, 5 and 9 after 10^5 L-1210 cells i.p.
[3] = 50 mg/kg i.p. on days 1, 5 and 9
[4] = 50 mg/kg intraperitoneally on days 1, 5 and 9 after 10^5 L-1210 cells i.p.
[5] = 100 mg/kg intraperitoneally on days 1, 5 and 9 after 10^5 L-1210 cells i.p.
[6] = 100 mg/kg i.p. on days 1, 5 and 9
[7] = 6.25 mg/kg intraperitoneally on days 1, 5 and 9 after 10^5 L-1210 cells i.p.
[8] = 12.5 mg/kg intraperitoneally on days 1, 5 and 9 after 10^5 L-1210 cells i.p.

Substance	number of mice cured after 30 days of the administration of the cells of Leukemia L-1210 [1]	T/C x 100 [2]	number of mice cured after 30 days of the administration of the cells of Leukemia L-1210 [3]	T/C x 100 [4]	T/C x 100 [5]	rate of life prolongation (T/C x 100) (Table 2, dose not stated) [%]	number of mice cured after 30 days of the administration of the cells of Leukemia L-1210 [6]	number of mice cured after 30 days of the administration of the cells of Leukemia L-1210 (6.25 mg/kg i.p. on days 1, 5 and 9)	T/C x 100 [7]	T/C x 100 [8]
Pt(NO3)(tetra-O-acetyl-α-D-glucuronato)(cis-dl-AMCHA) [Compound No. 6]	1	281	3	402	120	–	–	–	–	–
Pt(NO3)(tetra-O-acetyl-β-D-glucuronato)(cis-dl-AMCHA)·3/2H2O [Compound No. 10]	1	204	–	242	157	400	–	–	–	–
Pt(NO3)(tetra-O-acetyl-β-D-glucuronato)(trans-dl-AMCHA)·2H2O [Compound No. 9]	–	–	1	253	206	–	2	–	–	–
Pt(penta-O-acetyl-D-gluconato)2(trans-dl-AMCHA)·H2O [Compound No. 15]	–	–	–	267	103	–	–	–	–	–
Pt(tetra-O-acetyl-α-D-glucuronato)2(cis-dl-AMCHA) [Compound No. 4]	–	145	1	198	277	–	2	–	–	–
PtCl(D-glucuronato)(cis-dl-AMCHA)·H2O [Compound No. 2]	–	156	–	–	–	–	–	2	271	189
PtCl(D-glucuronato)(trans-dl-AMCHA)·2H2O [Compound No. 1]	2	293	–	–	–	–	–	–	144	118
